{
  "source": "paper PMC11591893",
  "about": "“Exploring the Antidiabetic and Antihypertensive Potential of Peptides Derived from Bitter Melon Seed Hydrolysate” (Biomedicines, 2024)",
  "key": {"[1]": {"molecular_target": "T1, recombinant human dipeptidyl peptidase-IV (DPP4) (Homo sapiens, UniProt P27487)", "T1 construct": "purchased Sigma–Aldrich Co", "T1 sequence (P27487 whole entry)": "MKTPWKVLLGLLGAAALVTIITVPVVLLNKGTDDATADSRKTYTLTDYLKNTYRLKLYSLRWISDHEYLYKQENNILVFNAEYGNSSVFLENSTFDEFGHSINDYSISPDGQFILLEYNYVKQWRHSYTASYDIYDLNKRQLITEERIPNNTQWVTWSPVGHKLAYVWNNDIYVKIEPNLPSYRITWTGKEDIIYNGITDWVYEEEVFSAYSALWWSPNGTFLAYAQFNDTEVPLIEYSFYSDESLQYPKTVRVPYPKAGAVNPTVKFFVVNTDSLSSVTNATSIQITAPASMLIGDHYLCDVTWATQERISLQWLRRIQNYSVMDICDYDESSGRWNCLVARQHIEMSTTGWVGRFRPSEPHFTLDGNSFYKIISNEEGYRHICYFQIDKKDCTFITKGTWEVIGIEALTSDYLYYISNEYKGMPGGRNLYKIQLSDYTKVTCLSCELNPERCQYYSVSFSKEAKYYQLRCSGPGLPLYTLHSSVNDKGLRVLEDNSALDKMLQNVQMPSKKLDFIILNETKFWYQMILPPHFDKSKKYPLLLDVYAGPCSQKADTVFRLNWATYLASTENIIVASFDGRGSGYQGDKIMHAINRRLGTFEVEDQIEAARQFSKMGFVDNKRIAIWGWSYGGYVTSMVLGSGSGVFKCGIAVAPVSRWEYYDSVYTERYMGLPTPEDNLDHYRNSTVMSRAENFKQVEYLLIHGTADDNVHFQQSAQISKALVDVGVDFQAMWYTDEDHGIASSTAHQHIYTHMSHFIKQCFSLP", "assay": "DPP4 inhibitory activity and IC50 (GP-pNA substrate, absorbance of pNA at 405 nm)", "assay_type": "biochemical", "settings": "for IC50: synthetic peptides; for inhibition at 2000 µM / DPP4 inhibitory activity: synthetic peptides at 2 mM", "method": "(§1) The DPP4 inhibitory activity was studied following Hung et al.. All the reagents and samples were dissolved in 0.1 M Tris-HCl buffer, pH 8. First, 25 µL of 1.6 mM GP-pNA was premixed with 25 µL of sample and incubated at 37 °C for 10 min. Then, 50 µL of 0.5 U/µL DPP4 was added. The reaction was set at 37 °C for one hour. 100 µL of 1 M sodium acetate at pH 4 was added to stop the enzymatic reaction. Using a PowerWave XS (Biotek®, Winooski, VT, USA) 96-well microplate reader, the absorbance of pNA, which was generated by the DPP4 and GP-pNA reactions, was measured at 405 nm. DPP4 inhibitory activity was examined by the following formula:(1) DPP4 inhibitory activity%=pNA(no inhibitor)−pNA(inhibitor)/pNA(no inhibitor)×100%,\n(§2) The absorbances of pNA obtained in the presence and absence of an inhibitor were referred to as pNA (inhibitor) and pNA (no inhibitor), respectively. The DPP4 half-maximal inhibitory concentration (DPP4 IC50) was determined by plotting at least five logarithmic concentrations of the inhibitor versus their DPP4 inhibition (%) to construct a nonlinear regression."}, "[2]": {"molecular_target": "T2, angiotensin-I-converting enzyme (ACE) from rabbit lungs (Oryctolagus cuniculus, UniProt P12822)", "T2 construct": "angiotensin-I-converting enzyme (ACE) from rabbit lungs; purchased Sigma–Aldrich Co; host or cells: rabbit lung tissue", "T2 sequence (P12822 34-1310)": "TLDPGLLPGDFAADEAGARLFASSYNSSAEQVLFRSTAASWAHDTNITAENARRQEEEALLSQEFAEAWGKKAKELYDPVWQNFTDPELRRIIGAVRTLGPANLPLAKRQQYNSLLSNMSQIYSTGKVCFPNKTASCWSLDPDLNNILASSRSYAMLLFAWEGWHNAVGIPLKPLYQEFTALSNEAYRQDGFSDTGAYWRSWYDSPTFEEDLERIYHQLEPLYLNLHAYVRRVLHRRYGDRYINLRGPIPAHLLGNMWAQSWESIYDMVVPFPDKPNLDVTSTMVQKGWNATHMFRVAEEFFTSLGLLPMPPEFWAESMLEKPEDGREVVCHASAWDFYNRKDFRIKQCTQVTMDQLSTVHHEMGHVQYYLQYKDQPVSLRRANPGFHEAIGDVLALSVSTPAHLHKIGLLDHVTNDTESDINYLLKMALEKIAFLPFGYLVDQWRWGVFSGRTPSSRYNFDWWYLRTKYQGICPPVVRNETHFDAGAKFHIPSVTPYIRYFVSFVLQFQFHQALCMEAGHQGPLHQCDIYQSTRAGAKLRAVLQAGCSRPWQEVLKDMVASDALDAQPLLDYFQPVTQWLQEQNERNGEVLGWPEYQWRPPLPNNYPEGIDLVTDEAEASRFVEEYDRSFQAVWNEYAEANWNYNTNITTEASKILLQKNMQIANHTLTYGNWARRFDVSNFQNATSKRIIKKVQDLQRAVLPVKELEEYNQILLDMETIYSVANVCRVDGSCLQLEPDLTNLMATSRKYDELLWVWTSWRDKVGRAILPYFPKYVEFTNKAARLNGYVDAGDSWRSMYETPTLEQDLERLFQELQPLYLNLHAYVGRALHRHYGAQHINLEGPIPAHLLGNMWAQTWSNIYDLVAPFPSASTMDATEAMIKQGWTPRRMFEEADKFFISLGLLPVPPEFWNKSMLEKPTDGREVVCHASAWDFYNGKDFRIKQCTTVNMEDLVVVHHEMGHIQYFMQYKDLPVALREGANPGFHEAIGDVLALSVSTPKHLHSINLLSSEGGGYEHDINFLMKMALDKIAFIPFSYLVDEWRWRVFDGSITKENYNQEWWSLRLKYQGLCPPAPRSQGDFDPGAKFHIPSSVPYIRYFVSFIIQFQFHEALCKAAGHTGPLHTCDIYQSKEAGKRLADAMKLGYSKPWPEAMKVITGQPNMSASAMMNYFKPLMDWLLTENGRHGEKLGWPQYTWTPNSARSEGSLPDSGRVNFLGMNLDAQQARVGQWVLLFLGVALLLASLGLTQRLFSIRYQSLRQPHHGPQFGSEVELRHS", "assay": "ACE inhibitory activity and IC50 (HHL substrate, HA by RP-HPLC)", "assay_type": "biochemical", "method": "(§3) The ACE inhibitory activity was investigated following Cushman and Cheung, with some modifications. First, 30 µL of 2.5 mM HHL was premixed with 10 µL of the sample at 37 °C for 5 min. Then, 20 µL of 0.05 mU/µL ACE was added. The reaction was maintained at 37 °C for one hour. Afterward, 60 µL of 1 N HCl was added to stop the reaction, and 10 µL of 0.2 µg/µL ferulic acid was used as an internal standard. All the reagents and samples were dissolved in pH 8.3 ACE buffer (760 mM boric acid, 300 mM NaCl, and 200 mM NaOH). Using UV-Vis RP-HPLC (Hitachi High-Tech Co., Tokyo, Japan), the area of HA, as the product of ACE and HHL reactions, was measured at 228 nm. An elution with 23% ACN and 0.1% TFA was used at a flow rate of 1 mL/min for 15 min to separate the analytes. ACE inhibitory activity was determined by the following formula:(2) ACE inhibitory activity%=HA(no inhibitor)−HA(inhibitor)/HA(no inhibitor)×100%\nas §2, with “areas” for “absorbances”, “HA acquired” for “pNA obtained”, “HA” for “pNA”, “ACE” for “DPP4”, “(ACE” for “(DPP4”, “performed” for “determined”"}, "[3]": {"molecular_target": "T1, recombinant human dipeptidyl peptidase-IV (DPP4)", "assay": "Peptide inhibition mechanism toward DPP4 (Lineweaver–Burk plot)", "assay_type": "biochemical", "settings": "GP-pNA 0.8, 1.6, 3.2 mM", "method": "as §1\nThe inhibition mechanism of peptides on DPP4 and ACE was studied using the inhibitory assays described previously. The peptide inhibition mechanism toward DPP4 was identified by generating a Lineweaver–Burk plot using the production rates of pNA in the presence and absence of the inhibitor at GP-pNA concentrations of 0.8, 1.6, and 3.2 mM. Meanwhile, the HA production rate was determined with and without the inhibitor using HHL concentrations of 0.625, 1.25, and 5 mM to assess the peptide inhibition mechanism against ACE through a Lineweaver–Burk plot."}, "[4]": {"molecular_target": "T2, angiotensin-I-converting enzyme (ACE) from rabbit lungs", "assay": "Peptide inhibition mechanism toward ACE (Lineweaver–Burk plot)", "assay_type": "biochemical", "settings": "HHL 0.625, 1.25, 5 mM", "method": "as §3\nThe inhibition mechanism of peptides on DPP4 and ACE was studied using the inhibitory assays described previously. […] Meanwhile, the HA production rate was determined with and without the inhibitor using HHL concentrations of 0.625, 1.25, and 5 mM to assess the peptide inhibition mechanism against ACE through a Lineweaver–Burk plot."}, "[5]": {"system": "pepsin, trypsin and α-chymotrypsin", "assay": "Stability against simulated gastrointestinal (SGI) digestion (pepsin, then trypsin and α-chymotrypsin; LC-MS)", "assay_type": "in vitro ADME", "settings": "pepsin ninety minutes, then α-chymotrypsin and trypsin three hours, 37 °C", "method": "The peptide stability against SGI digestion was investigated by following the research of Gu and Wu, with some modifications. All the SGI enzyme-to-peptide ratios were fixed at 2%. The synthesized peptides MW4 and VF7 were dissolved in 35 mM NaCl buffer (pH 2.0) and digested by pepsin at 37 °C for ninety minutes, respectively. Next, the pH was adjusted to 7–8. Half of each sample was boiled for 15 min to terminate pepsin digestion. The other half of the sample was treated with trypsin and α-chymotrypsin and the reaction was continued at 37 °C for three hours, followed by boiling for 15 min to stop the reaction. An LC-MS analysis was employed to assess the resistance of peptides to SGI digestion."}, "DPP4": {"system": "DPP4", "settings": "cited from earlier work"}, "ACE": {"system": "ACE", "settings": "cited from earlier work"}},
  "note": "Entries after “also recorded” stand apart in the source; their conditions may differ. Where a SMILES comes first, the peptide text is derived from it. Where no end group is shown, it is not given here.",
  "data": [
    {"compound": "CC(C)C[C@H](N)C(=O)N[C@@H](Cc1ccccc1)C(=O)N[C@@H](Cc1ccc(O)cc1)C(=O)O", "note": "[LY3, LFY] (H-Leu-Phe-Tyr-OH; N-terminus assumed)", "values": [
      {"measurement": "IC50", "setting": "[1]", "value": "2100 ± 55.2", "unit": "µM"},
      {"measurement": "inhibition at 2000 µM", "setting": "[1]", "value": 49, "unit": "%"}
    ]},
    {"compound": "CSCC[C@H](N)C(=O)N1CCC[C@H]1C(=O)N[C@@H](Cc1c[nH]cn1)C(=O)N[C@@H](Cc1c[nH]c2ccccc12)C(=O)O", "note": "[MW4, MPHW] (H-MPHW-OH; N-terminus assumed)", "values": [
      {"measurement": "IC50", "setting": "[1]", "value": "128 ± 1.3", "unit": "µM"},
      {"measurement": "inhibition at 2000 µM", "setting": "[1]", "value": 97, "unit": "%"},
      {"measurement": "IC50", "setting": "[2]", "value": "172 ± 10.6", "unit": "µM"},
      {"measurement": "DPP4 inhibition mechanism", "setting": "[3]", "value": "competitive inhibitors"},
      {"measurement": "ACE inhibition mechanism", "setting": "[4]", "value": "competitive inhibitor"},
      {"measurement": "Stability during simulated gastrointestinal digestion", "setting": "[5]", "value": "remained stable; also recorded: neither MW4 nor VF7 was hydrolyzed"}
    ]},
    {"compound": "APLVSW", "values": [
      {"measurement": "IC50", "setting": "DPP4", "value": 145, "unit": "µM"},
      {"measurement": "IC50", "setting": "ACE", "value": 9.6, "unit": "µM"}
    ]},
    {"compound": "ELF [EF3]", "values": [
      {"measurement": "DPP4 inhibitory activity", "setting": "[1]", "value": 4, "unit": "%"}
    ]},
    {"compound": "HNLPVL [HL6]", "values": [
      {"measurement": "DPP4 inhibitory activity", "setting": "[1]", "value": 12, "unit": "%"}
    ]},
    {"compound": "LFPNAGY-OH [LY7, LFPNAGY]", "values": [
      {"measurement": "IC50", "setting": "[1]", "value": "913.6 ± 6.7", "unit": "µM"},
      {"measurement": "inhibition at 2000 µM", "setting": "[1]", "value": 71, "unit": "%"}
    ]},
    {"compound": "LPSW", "values": [
      {"measurement": "IC50", "setting": "DPP4", "value": 270, "unit": "µM"},
      {"measurement": "IC50", "setting": "ACE", "value": 21, "unit": "µM"}
    ]},
    {"compound": "MLPQNF-OH [MF6, MLPQNF]", "values": [
      {"measurement": "IC50", "setting": "[1]", "value": "957 ± 39.2", "unit": "µM"},
      {"measurement": "inhibition at 2000 µM", "setting": "[1]", "value": 68, "unit": "%"}
    ]},
    {"compound": "PAGPF", "values": [
      {"measurement": "IC50", "setting": "DPP4", "value": 136, "unit": "µM"}
    ]},
    {"compound": "PLW [PW3]", "values": [
      {"measurement": "DPP4 inhibitory activity", "setting": "[1]", "value": 6, "unit": "%"}
    ]},
    {"compound": "RATLPF-OH [RF6, RATLPF]", "values": [
      {"measurement": "IC50", "setting": "[1]", "value": "1670 ± 45.4", "unit": "µM"},
      {"measurement": "inhibition at 2000 µM", "setting": "[1]", "value": 56, "unit": "%"}
    ]},
    {"compound": "VPSGAPF-OH [VF7, VPSGAPF]", "values": [
      {"measurement": "IC50", "setting": "[1]", "value": "151 ± 3.4", "unit": "µM"},
      {"measurement": "inhibition at 2000 µM", "setting": "[1]", "value": 90, "unit": "%"},
      {"measurement": "inhibition at 200 µM", "setting": "[2]; 200 µM", "value": 19, "unit": "%"},
      {"measurement": "DPP4 inhibition mechanism", "setting": "[3]", "value": "competitive inhibitors"},
      {"measurement": "Stability during simulated gastrointestinal digestion", "setting": "[5]", "value": "remained stable; also recorded: neither MW4 nor VF7 was hydrolyzed"}
    ]},
    {"compound": "WALPTQSW [peptide derived from Inca nut seed GP hydrolysate]", "values": [
      {"measurement": "IC50", "setting": "DPP4", "value": 132, "unit": "µM"},
      {"measurement": "IC50", "setting": "ACE", "value": 4.7, "unit": "µM"}
    ]}
  ]
}
